Data reported in PMC8200971, “Design, Synthesis, Biological Evaluation and Silico Prediction of Novel Sinomenine Derivatives” (Molecules, 2021).

Key:
[1] = test system: HepG2 (human hepatocellular carcinoma cell lines); experiment: MTT assay, growth inhibition; type: cell-based; settings: HepG2, 20 μM, 24 h
Description: (§1) The in vitro growth inhibitory activity of the sinomenine derivatives (5a–5k) was evaluated against different three cell lines, MCF-7, Hela, and HepG2, using sinomenine as the reference compound kept under the same conditions in an MTT assay. The inhibition ratios of synthetic compounds were determined at concentrations of 2, 20 and 200 μM.
(§2) The MCF-7 (human breast cancer cell lines), Hela (human cervical cancer cells lines), and HepG2 (human hepatocellular carcinoma cell lines) cells were used to measure the cytotoxicity of the 5a–5k series, which were provided by the Academy of Military Medical Sciences (Beijing, China). The cell lines were maintained on RPMI 1640 nutrient medium supplemented with 10% heat-inactivated fetal bovine serum, 1% L-glutamine, […] and 100 units/mL penicillin. The cells were grown at 37 °C in a humidified atmosphere with 5% CO2 and were subcultured two to three times a week.
(§3) The MTT (3-(4, 5-dimethyl thiazol-2-yl)-2, 5-diphenyl tetrazolium bromide) assay with a slight modification was used to determine the inhibition effects of substrates 5a–5k. MCF-7, Hela and HepG2 were used for testing. Briefly, cells (5.0 × 10^3 cells per well) were seeded in 100 μL of the RPMI-1640 medium in 96-well plates for 24 h, treated with drugs and complete medium in wells up to 200 μL for 24 h. RPMI-1640 samples were employed as negative controls, and cisplatin as a positive control. Four quadruplicates of each concentration for all tested compounds were evaluated in three independent assays. For this, after removing the drug containing media 100 μL, 10 μL of MTT solution was added to wells and incubated for 4 h under similar conditions. After that, the supernatant from each well was removed and the formazan crystals formed by viable cells were dissolved with DMSO (100 μL/well). At the end of incubation, optical densities at 570 nm were measured using a plate reader (BIO-TEK, USA). Cell viability was calculated based on the measured absorbance relative to the absorbance of the cells exposed to the negative control, which represented 100% cell viability.

[2] = test system: MCF-7 (human breast cancer cell lines); experiment: MTT assay, growth inhibition; type: cell-based; settings: MCF-7, 20 μM, 24 h
Description: as §1, §2, §3

[3] = test system: Hela (human cervical cancer cells lines); experiment: MTT assay, growth inhibition; type: cell-based; settings: 20 μM, 24 h
Description: as §1, §2, §3

Structure (SMILES) | melting point [°C] | inhibition ratio [1] | inhibition ratio [2] [%] | inhibition ratio [3] [%]
COC1=C[C@@H]2[C@@H]3Cc4c(CN5CCCCC5)cc(OC)c(OC(=O)Cc5cccc(Cl)c5)c4[C@]2(CCN3C)CC1=O [5g, (4bR,8aS,9S)-3,7-dimethoxy-11-methyl-6-oxo-1-(piperidin-1-ylmethyl)-6,8a,9,10-tetrahydro-5H-9,4b-(epiminoethano)phenanthren-4-yl 2-(3-chlorophenyl)acetate] | 164 to 167 | more than 53.2% | – | –
COC1=C[C@@H]2[C@@H]3Cc4c(CN5CCCCC5)cc(OC)c(OC(=O)Cc5ccc(Cl)cc5Cl)c4[C@]2(CCN3C)CC1=O [5i, (4bR,8aS,9S)-3,7-dimethoxy-11-methyl-6-oxo-1-(piperidin-1-ylmethyl)-6,8a,9,10-tetrahydro-5H-9,4b-(epiminoethano)phenanthren-4-yl 2-(2,4-dichlorophenyl)acetate] | 135 to 137 | 90.69% | 54.13 | 94.43
COC1=C[C@@H]2[C@@H]3Cc4c(CN5CCCCC5)cc(OC)c(OC(=O)Cc5ccc(Cl)c(Cl)c5)c4[C@]2(CCN3C)CC1=O [5j, (4bR,8aS,9S)-3,7-dimethoxy-11-methyl-6-oxo-1-(piperidin-1-ylmethyl)-6,8a,9,10-tetrahydro-5H-9,4b-(epiminoethano)phenanthren-4-yl 2-(3,4-dichlorophenyl)acetate] | 143 to 146 | 89.57% | 63.35 | 80.22
